Measured values: patent US20080027006A1 (priority 2004, published 2008)

Target: HR-N and HR-C regions of the SARS-CoV S glycoprotein (Severe acute respiratory syndrome coronavirus, UniProt P59594)
Assay type: binding, SARS coronavirus (Urbani strain)

Row | SMILES | interaction with HR-C1 (in words) | induction of ellipticity at 222 nm with HR-C1
1 | CC[C@H](C)[C@H](NC(=O)[C@H](CCC(N)=O)NC(=O)[C@H](CO)NC(=O)[C@@H](NC(=O)[C@H](C)NC(=O)[C@H](CCCCN)NC(=O)[C@H](CC(N)=O)NC(=O)[C@H](Cc1ccccc1)NC(=O)[C@H](CCC(N)=O)NC(=O)[C@H](CC(N)=O)NC(=O)[C@H](C)NC(=O)[C@@H](NC(=O)[C@H](CCC(N)=O)NC(=O)[C@H](CCCCN)NC(=O)[C@H](CCC(N)=O)NC(=O)[C@H](CC(N)=O)NC(=O)[C@H](CCC(=O)O)NC(=O)[C@H](Cc1ccc(O)cc1)NC(=O)[C@H](CC(C)C)NC(=O)[C@@H](NC(=O)[C@H](CC(N)=O)NC(=O)[C@H](CCC(N)=O)NC(=O)[C@@H](NC(=O)[C@@H](NC(=O)CNC(=O)[C@@H](NC(=O)CNC(=O)[C@H](CC(N)=O)NC(=O)[C@H](Cc1ccccc1)NC(=O)[C@H](CCCNC(=N)N)NC(=O)[C@H](Cc1ccc(O)cc1)NC(=O)[C@H](C)NC(=O)[C@H](CCSC)NC(=O)[C@H](CCC(N)=O)NC(=O)[C@H](CCSC)NC(C)=O)[C@@H](C)CC)C(C)C)[C@@H](C)O)C(C)C)[C@@H](C)CC)[C@@H](C)CC)C(N)=O [HR-N5] | no detectable interaction | 
2 | CC[C@H](C)[C@H](NC(=O)CNC(=O)[C@H](CC(N)=O)NC(=O)[C@H](Cc1ccccc1)NC(C)=O)C(=O)NCC(=O)N[C@H](C(=O)N[C@H](C(=O)N[C@@H](CCC(N)=O)C(=O)N[C@@H](CC(N)=O)C(=O)N[C@H](C(=O)N[C@@H](CC(C)C)C(=O)N[C@@H](Cc1ccc(O)cc1)C(=O)N[C@@H](CCC(=O)O)C(=O)N[C@@H](CC(N)=O)C(=O)N[C@@H](CCC(N)=O)C(=O)N[C@@H](CCCCN)C(=O)N[C@@H](CCC(N)=O)C(=O)N[C@H](C(=O)N[C@@H](C)C(=O)N[C@@H](CC(N)=O)C(=O)N[C@@H](CCC(N)=O)C(=O)N[C@@H](Cc1ccccc1)C(=O)N[C@@H](CC(N)=O)C(=O)N[C@@H](CCCCN)C(=O)N[C@@H](C)C(=O)N[C@H](C(=O)N[C@@H](CO)C(=O)N[C@@H](CCC(N)=O)C(=O)N[C@H](C(=O)N[C@@H](CCC(N)=O)C(=O)N[C@@H](CCC(=O)O)C(=O)N[C@@H](CO)C(=O)N[C@@H](CC(C)C)C(=O)N[C@H](C(=O)N[C@H](C(N)=O)[C@@H](C)O)[C@@H](C)O)[C@@H](C)CC)[C@@H](C)CC)[C@@H](C)CC)C(C)C)[C@@H](C)O)C(C)C [HR-N6] | No interactions | 
3 | CC[C@H](C)[C@H](NC(=O)[C@H](C)NC(=O)[C@H](CCCCN)NC(=O)[C@H](CC(N)=O)NC(=O)[C@H](Cc1ccccc1)NC(=O)[C@H](CCC(N)=O)NC(=O)[C@H](CC(N)=O)NC(=O)[C@H](C)NC(=O)[C@@H](NC(=O)[C@H](CCC(N)=O)NC(=O)[C@H](CCCCN)NC(=O)[C@H](CCC(N)=O)NC(=O)[C@H](CC(N)=O)NC(=O)[C@H](CCC(=O)O)NC(=O)[C@H](Cc1ccc(O)cc1)NC(=O)[C@H](CC(C)C)NC(=O)[C@@H](NC(=O)[C@H](CC(N)=O)NC(=O)[C@H](CCC(N)=O)NC(C)=O)C(C)C)[C@@H](C)CC)C(=O)N[C@@H](CO)C(=O)N[C@@H](CCC(N)=O)C(=O)N[C@H](C(=O)N[C@@H](CCC(N)=O)C(=O)N[C@@H](CCC(=O)O)C(=O)N[C@@H](CO)C(=O)N[C@@H](CC(C)C)C(=O)N[C@H](C(=O)N[C@H](C(=O)N[C@H](C(=O)N[C@@H](CO)C(=O)N[C@H](C(=O)N[C@@H](C)C(=O)N[C@@H](CC(C)C)C(=O)NCC(=O)N[C@@H](CCCCN)C(N)=O)[C@@H](C)O)[C@@H](C)O)[C@@H](C)O)[C@@H](C)O)[C@@H](C)CC [HR-N7] | No interactions | 
4 | CC[C@H](C)[C@H](NC(=O)[C@H](C)NC(=O)[C@H](CCCCN)NC(=O)[C@H](CC(N)=O)NC(=O)[C@H](Cc1ccccc1)NC(=O)[C@H](CCC(N)=O)NC(=O)[C@H](CC(N)=O)NC(=O)[C@H](C)NC(=O)[C@@H](NC(=O)[C@H](CCC(N)=O)NC(=O)[C@H](CCCCN)NC(=O)[C@H](CCC(N)=O)NC(C)=O)[C@@H](C)CC)C(=O)N[C@@H](CO)C(=O)N[C@@H](CCC(N)=O)C(=O)N[C@H](C(=O)N[C@@H](CCC(N)=O)C(=O)N[C@@H](CCC(=O)O)C(=O)N[C@@H](CO)C(=O)N[C@@H](CC(C)C)C(=O)N[C@H](C(=O)N[C@H](C(=O)N[C@H](C(=O)N[C@@H](CO)C(=O)N[C@H](C(=O)N[C@@H](C)C(=O)N[C@@H](CC(C)C)C(=O)NCC(=O)N[C@@H](CCCCN)C(=O)N[C@@H](CC(C)C)C(=O)N[C@@H](CCC(N)=O)C(=O)N[C@@H](CC(=O)O)C(=O)N[C@H](C(=O)N[C@H](C(=O)N[C@@H](CC(N)=O)C(=O)N[C@@H](CCC(N)=O)C(N)=O)C(C)C)C(C)C)[C@@H](C)O)[C@@H](C)O)[C@@H](C)O)[C@@H](C)O)[C@@H](C)CC [HR-N8] | No interactions | 
5 | CC[C@H](C)[C@H](NC(=O)[C@H](C)NC(=O)[C@H](CCCCN)NC(=O)[C@H](CC(N)=O)NC(=O)[C@H](Cc1ccccc1)NC(C)=O)C(=O)N[C@@H](CO)C(=O)N[C@@H](CCC(N)=O)C(=O)N[C@H](C(=O)N[C@@H](CCC(N)=O)C(=O)N[C@@H](CCC(=O)O)C(=O)N[C@@H](CO)C(=O)N[C@@H](CC(C)C)C(=O)N[C@H](C(=O)N[C@H](C(=O)N[C@H](C(=O)N[C@@H](CO)C(=O)N[C@H](C(=O)N[C@@H](C)C(=O)N[C@@H](CC(C)C)C(=O)NCC(=O)N[C@@H](CCCCN)C(=O)N[C@@H](CC(C)C)C(=O)N[C@@H](CCC(N)=O)C(=O)N[C@@H](CC(=O)O)C(=O)N[C@H](C(=O)N[C@H](C(=O)N[C@@H](CC(N)=O)C(=O)N[C@@H](CCC(N)=O)C(=O)N[C@@H](CC(N)=O)C(=O)N[C@@H](C)C(=O)N[C@@H](CCC(N)=O)C(=O)N[C@@H](C)C(=O)N[C@@H](CC(C)C)C(=O)N[C@@H](CC(N)=O)C(=O)N[C@H](C(N)=O)[C@@H](C)O)C(C)C)C(C)C)[C@@H](C)O)[C@@H](C)O)[C@@H](C)O)[C@@H](C)O)[C@@H](C)CC [HR-N9] |  | 3,500 degrees
6 | CC[C@H](C)[C@H](NC(C)=O)C(=O)N[C@@H](CCC(N)=O)C(=O)N[C@@H](CCC(=O)O)C(=O)N[C@@H](CO)C(=O)N[C@@H](CC(C)C)C(=O)N[C@H](C(=O)N[C@H](C(=O)N[C@H](C(=O)N[C@@H](CO)C(=O)N[C@H](C(=O)N[C@@H](C)C(=O)N[C@@H](CC(C)C)C(=O)NCC(=O)N[C@@H](CCCCN)C(=O)N[C@@H](CC(C)C)C(=O)N[C@@H](CCC(N)=O)C(=O)N[C@@H](CC(=O)O)C(=O)N[C@H](C(=O)N[C@H](C(=O)N[C@@H](CC(N)=O)C(=O)N[C@@H](CCC(N)=O)C(=O)N[C@@H](CC(N)=O)C(=O)N[C@@H](C)C(=O)N[C@@H](CCC(N)=O)C(=O)N[C@@H](C)C(=O)N[C@@H](CC(C)C)C(=O)N[C@@H](CC(N)=O)C(=O)N[C@H](C(=O)N[C@@H](CC(C)C)C(=O)N[C@H](C(=O)N[C@@H](CCCCN)C(=O)N[C@@H](CCC(N)=O)C(=O)N[C@@H](CC(C)C)C(=O)N[C@@H](CO)C(=O)N[C@@H](CO)C(N)=O)C(C)C)[C@@H](C)O)C(C)C)C(C)C)[C@@H](C)O)[C@@H](C)O)[C@@H](C)O)[C@@H](C)O [HR-N10] |  | 9,600 degrees
7 | CC[C@H](C)[C@H](NC(=O)[C@H](C)NC(=O)CNC(=O)[C@H](Cc1ccccc1)NC(=O)[C@H](CC(N)=O)NC(=O)[C@H](CO)NC(=O)[C@H](CO)NC(=O)[C@H](CC(C)C)NC(=O)[C@H](CCC(N)=O)NC(=O)[C@H](CCCCN)NC(=O)[C@@H](NC(=O)[C@H](CC(C)C)NC(=O)[C@@H](NC(=O)[C@H](CC(N)=O)NC(=O)[C@H](CC(C)C)NC(=O)[C@H](C)NC(=O)[C@H](CCC(N)=O)NC(=O)[C@H](C)NC(=O)[C@H](CC(N)=O)NC(=O)[C@H](CCC(N)=O)NC(=O)[C@H](CC(N)=O)NC(=O)[C@@H](NC(=O)[C@@H](NC(=O)[C@H](CC(=O)O)NC(=O)[C@H](CCC(N)=O)NC(=O)[C@H](CC(C)C)NC(=O)[C@H](CCCCN)NC(=O)CNC(=O)[C@H](CC(C)C)NC(=O)[C@H](C)NC(=O)[C@@H](NC(=O)[C@H](CO)NC(=O)[C@@H](NC(C)=O)[C@@H](C)O)[C@@H](C)O)C(C)C)C(C)C)[C@@H](C)O)C(C)C)C(=O)N[C@@H](CO)C(=O)N[C@@H](CO)C(N)=O [HR-N11] | absence of any observable interaction | 
